Counter-ions that a name gives are not always drawn. Some results are limits rather than exact numbers.

For the test, the target named is PDE4 (Homo sapiens, UniProt Q08499). As to the kind of experiment: In-vitro assay for PDE4 enzymes, real-time enzyme-coupled spectrophotometric assay (Table 9). It is filed as biochemical. The note with it: human PDE4D; activity class, Table 9; read-out: hPDE4D.
PDE4, sequence (Q08499 whole entry): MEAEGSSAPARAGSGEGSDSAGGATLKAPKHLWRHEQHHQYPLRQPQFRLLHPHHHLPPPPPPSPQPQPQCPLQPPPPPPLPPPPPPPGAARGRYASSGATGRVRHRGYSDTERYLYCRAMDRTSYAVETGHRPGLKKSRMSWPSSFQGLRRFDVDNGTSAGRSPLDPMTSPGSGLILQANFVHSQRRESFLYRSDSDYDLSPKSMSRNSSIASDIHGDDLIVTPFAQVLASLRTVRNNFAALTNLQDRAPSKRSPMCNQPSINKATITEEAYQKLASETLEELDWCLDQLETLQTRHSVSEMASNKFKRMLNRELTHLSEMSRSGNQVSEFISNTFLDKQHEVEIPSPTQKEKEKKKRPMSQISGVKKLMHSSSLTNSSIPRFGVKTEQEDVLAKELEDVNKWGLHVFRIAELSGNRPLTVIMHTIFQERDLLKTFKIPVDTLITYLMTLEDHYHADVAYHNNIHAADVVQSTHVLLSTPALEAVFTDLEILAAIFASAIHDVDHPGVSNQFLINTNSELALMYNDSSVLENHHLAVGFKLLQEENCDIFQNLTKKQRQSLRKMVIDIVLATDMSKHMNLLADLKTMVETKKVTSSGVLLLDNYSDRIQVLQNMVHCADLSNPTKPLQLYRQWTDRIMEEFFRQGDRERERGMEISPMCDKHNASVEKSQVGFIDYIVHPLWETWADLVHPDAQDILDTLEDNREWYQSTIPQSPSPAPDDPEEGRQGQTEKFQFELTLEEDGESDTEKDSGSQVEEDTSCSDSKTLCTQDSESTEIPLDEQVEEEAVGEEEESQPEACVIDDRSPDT
With `COc1ccc(CO)nc1-c1cccc([N+](=O)[O-])c1` [P-491, [5-methoxy-6-(3-nitro-phenyl)-pyridin-2-yl]-methanol], the IC50 lay in the range of 20 to 40 µM.

With `COc1ccc(Cn2cncn2)cc1-c1cccc(S(C)(=O)=O)c1` [P-495, 1-(3′-Methanesulfonyl-6-methoxy-biphenyl-3-ylmethyl)-1H-[1,2,4]triazole], the IC50 lay within 20 to 40 µM. Consider `COc1ccc(CN2CC[C@@H](O)C2)cc1-c1cccc(C(F)(F)F)c1` [P-078], for which the IC50 lay in the range of 5 to 20 µM.

Regarding `COc1ccc(Cc2ccc(N3CCNCC3)nc2)c(F)c1-c1cccc(Cl)c1` [P-423, 1-[5-(3′-chloro-2-fluoro-6-methoxy-biphenyl-3-ylmethyl)-pyridin-2-yl]-piperazine], the IC50 is 5 to 20 µM. On to `COc1ccc(C=Cc2ccc(F)cc2)c(F)c1-c1cccc(Cl)c1` [P-418], for which the IC50 was 5 to 20 µM. As to `COc1ccc(COc2cccc(N)c2)c(F)c1-c1cccc(Cl)c1` [P-232], the IC50 is less than 5 µM. Regarding `COc1ccc(COc2ccc(NC(N)=O)cc2)c(F)c1-c1cccc(Cl)c1` [P-589], the IC50 was less than 5 µM.

In the case of `COc1ccc(COc2ccc(NC(C)=O)cc2)c(F)c1-c1cccc(Br)c1` [P-194], the IC50 was less than 5 µM.

With `CCNC(=O)Nc1ccc(S(=O)(=O)c2ccc(OC)c(-c3cccc(Cl)c3)c2)cc1` [P-450, 1-[4-(3′-Chloro-6-methoxy-biphenyl-3-sulfonyl)-phenyl]-3-ethyl-urea], the IC50 was less than 5 µM. As for `COc1ccc(Cc2ccc(N3CC[C@@H]3C(N)=O)nc2)c(F)c1-c1cccc(Cl)c1` [P-617, (R)-1-[5-(3′-chloro-2-fluoro-6methoxy-biphenyl-3-ylmethyl)-pyridin-2-yl]-azetidine-2-carboxylic acid amide], the figure is less than 5 µM; as for `COc1ccc(Cc2ccc(F)cc2)cc1-c1ccc2c(c1)OCO2` [P-003, 5-[5-(4-Fluoro-benzyl)-2-methoxy-phenyl]-benzo[1,3]dioxole], less than 5 µM; as for `CN(C)CC(=O)Nc1ccc(Cc2ccc(OC(F)F)c(-c3cccc(Cl)c3)c2)cn1` [P-618, N-[5-(3′-Chloro-6-difluoromethoxy-biphenyl-3-ylmethyl)-pyridin-2-yl]-2-dimethylamino-acetamide hydrochloride], less than 5 µM.

Take `COc1ccc(C(O)c2ccc(C#N)cc2)c(O)c1-c1cccc([N+](=O)[O-])c1` (stereo not shown) [P-137, 4-[Hydroxy-(2-hydroxy-6-methoxy-3′-nitro-biphenyl-3-yl)-methyl]benzonitrile]: the IC50 is less than 5 µM. As for `COc1ccc(Cc2ccc(N(C)C)cc2)c(O)c1-c1cccc([N+](=O)[O-])c1` [P-157, 3-(4-Dimethylamino-benzyl)-6-methoxy-3′-nitro-biphenyl-2-ol], the IC50 was less than 5 µM.

`COc1ccc(Cc2ccc(F)cc2)cc1-c1cccc(N2CCOCC2)c1` [P-385, 4-[5′-(4-Fluoro-benzyl)-2′-methoxy-biphenyl-3-yl]-morpholine]: the IC50 was in the range of 5 to 20 µM. On to `COc1ccc(Nc2ccc(NC(N)=O)cc2)cc1-c1cccc(Cl)c1` [P-294, [4-(3′-Chloro-6-methoxy-biphenyl-3-ylamino)-phenyl]-urea], for which the IC50 was less than 5 µM. As for `COc1ccc(Cc2ccc(NC(=O)CN(C)C)cc2)c(F)c1-c1cccc(Cl)c1` [P-238, N-[4-(3′-chloro-2-fluoro-6-methoxy-biphenyl-3-ylmethyl)-phenyl]-2-dimethylamino-acetamide], the IC50 is less than 5 µM. In the case of `COc1ccc(Cc2ccc(N3CCOCC3)nc2)cc1-c1cccc(Cl)c1` [P-572, 4-[5-(3′-chloro-6-methoxy-biphenyl-3-ylmethyl)-pyridin-2-yl]-morpholine], the IC50 is less than 5 µM. Consider `COc1ccc(Cc2ccc(C(C)NC(N)=O)nc2)c(F)c1-c1cccc(Cl)c1` (stereo not shown) [P-613, {1-[5-(3′-Chloro-2-fluoro-6-methoxy-biphenyl-3-ylmethyl)-pyridin-2-yl]-ethyl}-urea hydrochloride], for which the IC50 was less than 5 µM.

Values taken from US8791267B2, “Biaryl PDE4 inhibitors for treating inflammatory, cardiovascular and CNS disorders” (Decode Genetics EHF, priority 2007, dated 2014).
